The test system of test [1] is human rhabdomyosarcoma Rh30 cells. Description: Proliferation of Rh30 cells (sulforhodamine B). Format: cell-based. The following applies: Homo sapiens, Rh30, 72 h; read-out: IC50 against proliferation of Rh30 cells. As to the method: Rh30 cells were seeded in a 96-well plate at 3000 cells/well. After the cells adhered, tested compounds at concentration of 10, 3, 1, 0.3, or 0.1 μM were added, and incubated for 72 h. The culture media were discarded and cells were fixed with trichloroacetic acid. After washed with distilled water for five times and dried, sulfonylrhodamine B was added. After washed with 1% glacial acetic acid for five times and dried, trihydroxymethylaminomethane buffer was added. OD value was measured by using a microplate reader at a wavelength of 560 nm.

The target of test [2] is PI3Kα (Homo sapiens (Human), UniProt P42336). Description: Inhibition on PI3K kinase activity (Kinase-Glo Plus luminescent assay). The following applies: 2 μM ATP, 1 hour at room temperature. Format: biochemical. Here is the method:
The activity of purified kinase was detected with Kinase-Glo® Plus kinase luminescent assay by measuring the amount of the remaining […] in the solution after the kinase reaction was completed. […] After reaction was performed for 1 hour at room temperature, 10 μL of Kinase Glo-Plus mixture was added and incubated for 1 hour to quench the reaction.
On the technique in general: Kinase-Glo reads ATP consumption through a luciferase reaction.

The test system of test [3] is human esophagus cancer KYSE 410 xenograft. Put plainly: Growth of KYSE 410 xenograft subcutaneously transplanted in nude mouse. Format: in vivo. The following applies: for Relative tumor proliferation rate T/C: 50 mg/kg p.o. once every day. As to the method: Well-developed tumors in nude mice were cut into 1.5 mm3 fragments and transplanted s.c. into the right flank of nude mice under sterile conditions. The diameters of subcutaneously transplanted tumours in nude mice were measured with a vernier calipe. When the tumour reached a volume 170 mm3, the mice were randomly assigned into two treatment groups: CYH33 50 mg/kg group or BYL-719 50 mg/kg group. Control groups were given the same amount of normal saline, and treatment groups received tested compounds (p.o). Compounds were administered orally once every day for 3 weeks. Evaluation index of antitumor activity was relative tumor proliferation rate T/C (%), the calculation formula of which was as follows: T/C (%)=(TRTV/CRTV)×100%, TRTV:RTV of treatment group; CRTV:RTV of negative control group.

Test [4] deals with KYSE150. Put plainly: Proliferation of human esophagus cancer cells. Type of test: cell-based. From the text: (§1) Compounds BYL719 (shown below), CYH33 (compound I-33) and I-27 were selected to test their activity on the proliferation of 11 species of human esophagus cancer cells.
(§2) The results reported in FIG. 3 were the average GI50 value and SD value of three experiments. The results were arranged according to the GI50 value of CYH33.

The test system of test [5] is KYSE2. Put plainly: Proliferation of human esophagus cancer cells. Type of test: cell-based.
Source text: as §1, §2

In test [6] the test system is KYSE140. Put plainly: Proliferation of human esophagus cancer cells. Type of test: cell-based.
Source text: as §1, §2

Test [7] concerns KYSE410. Description: Proliferation of human esophagus cancer cells. Format: cell-based.
Source text: as §1, §2

Test [8] concerns KYSE30. Put plainly: Proliferation of human esophagus cancer cells. Format: cell-based.
Source text: as §1, §2

In test [9] the test system is KYSE450. Description: Proliferation of human esophagus cancer cells. Format: cell-based.
Source text: as §1, §2

Test [10] concerns KYSE180. Description: Proliferation of human esophagus cancer cells. Format: cell-based.
Source text: as §1, §2

The subject of test [11] is Detroit 562. Put plainly: Proliferation of human esophagus cancer cells. Type of test: cell-based.
Source text: as §1, §2

In test [12] the test system is KYSE70. Put plainly: Proliferation of human esophagus cancer cells. Format: cell-based.
Source text: as §1, §2

The subject of test [13] is KYSE510. Description: Proliferation of human esophagus cancer cells. Type of test: cell-based.
Source text: as §1, §2

Test [14] deals with COLO680N. Put plainly: Proliferation of human esophagus cancer cells. Format: cell-based. The conditions noted are these: COLO-680N.
Source text: as §1, §2

Each structure is given as a SMILES string.

Sequence of PI3Kα (P42336 whole entry): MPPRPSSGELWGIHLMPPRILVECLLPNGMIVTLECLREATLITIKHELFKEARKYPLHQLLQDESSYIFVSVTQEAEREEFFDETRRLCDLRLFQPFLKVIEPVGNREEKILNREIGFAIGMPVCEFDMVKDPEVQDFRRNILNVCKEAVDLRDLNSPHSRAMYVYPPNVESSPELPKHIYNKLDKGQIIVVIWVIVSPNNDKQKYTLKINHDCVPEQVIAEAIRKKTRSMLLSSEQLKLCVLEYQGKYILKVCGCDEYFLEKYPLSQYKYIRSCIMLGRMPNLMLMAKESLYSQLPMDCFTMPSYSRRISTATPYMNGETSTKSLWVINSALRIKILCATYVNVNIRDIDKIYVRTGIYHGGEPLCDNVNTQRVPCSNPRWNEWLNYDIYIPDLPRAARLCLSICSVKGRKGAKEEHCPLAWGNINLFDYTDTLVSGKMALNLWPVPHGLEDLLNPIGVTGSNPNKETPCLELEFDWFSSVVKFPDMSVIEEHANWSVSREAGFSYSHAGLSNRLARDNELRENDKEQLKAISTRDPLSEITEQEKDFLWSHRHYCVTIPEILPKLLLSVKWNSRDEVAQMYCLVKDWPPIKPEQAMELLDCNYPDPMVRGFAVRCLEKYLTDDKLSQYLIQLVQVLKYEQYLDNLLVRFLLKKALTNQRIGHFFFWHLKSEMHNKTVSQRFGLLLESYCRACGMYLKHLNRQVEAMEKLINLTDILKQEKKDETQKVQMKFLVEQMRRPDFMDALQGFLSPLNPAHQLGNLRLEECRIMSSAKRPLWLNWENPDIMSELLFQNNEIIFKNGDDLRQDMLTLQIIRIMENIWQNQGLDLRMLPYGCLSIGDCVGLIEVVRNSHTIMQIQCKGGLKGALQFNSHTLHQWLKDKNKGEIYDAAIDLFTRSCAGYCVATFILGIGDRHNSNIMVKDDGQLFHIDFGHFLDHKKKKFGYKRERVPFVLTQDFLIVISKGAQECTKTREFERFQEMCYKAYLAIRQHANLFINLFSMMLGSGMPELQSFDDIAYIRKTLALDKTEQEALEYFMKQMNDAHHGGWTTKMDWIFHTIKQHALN
Sequence of PI3Kα (P27986 whole entry partner): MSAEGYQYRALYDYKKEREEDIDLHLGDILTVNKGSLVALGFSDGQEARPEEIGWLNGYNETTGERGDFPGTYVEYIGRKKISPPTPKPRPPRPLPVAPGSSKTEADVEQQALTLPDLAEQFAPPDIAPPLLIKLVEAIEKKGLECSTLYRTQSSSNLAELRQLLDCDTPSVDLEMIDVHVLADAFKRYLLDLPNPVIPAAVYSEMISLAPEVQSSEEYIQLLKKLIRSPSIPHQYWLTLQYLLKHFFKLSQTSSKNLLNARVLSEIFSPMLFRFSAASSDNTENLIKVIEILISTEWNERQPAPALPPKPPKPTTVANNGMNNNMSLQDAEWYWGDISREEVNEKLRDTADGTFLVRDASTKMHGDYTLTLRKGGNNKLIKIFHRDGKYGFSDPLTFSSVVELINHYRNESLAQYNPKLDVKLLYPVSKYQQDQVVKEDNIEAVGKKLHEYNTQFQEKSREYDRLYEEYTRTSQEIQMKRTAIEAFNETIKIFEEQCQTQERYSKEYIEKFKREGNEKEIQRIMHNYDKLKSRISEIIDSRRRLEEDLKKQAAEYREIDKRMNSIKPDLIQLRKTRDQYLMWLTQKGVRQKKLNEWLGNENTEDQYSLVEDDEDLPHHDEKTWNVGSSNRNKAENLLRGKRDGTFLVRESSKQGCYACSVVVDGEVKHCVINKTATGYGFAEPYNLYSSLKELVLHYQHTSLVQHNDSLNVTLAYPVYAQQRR

With `COC(=O)Nc1cc(C(F)(F)F)c(-c2nc(N3CCOC[C@@H]3C)c3cc(CN4CCN(S(C)(=O)=O)CC4)cn3n2)cn1` [Compound I-35, (S)-methyl (5-(4-(3-methylmorpholino)-6-((4-(methylsulfonyl)piperazin-1-yl)methyl)pyrrolo[2,1-f][1,2,4]triazin-2-yl)-4-(trifluoromethyl)pyridin-2-yl)carbamate], the IC50 worked out at 0.47 µM in [1] and 0.00567 µM in test [2].

Consider `CN1CCN(C(=O)c2ccc(NC(=O)Nc3ccc(-c4nc(N5CCOCC5)c5cc(CN6CCN(S(C)(=O)=O)CC6)cn5n4)cc3)cc2)CC1` [Compound I-22, 1-(4-(4-methylpiperazine-carbonyl)phenyl)-3-(4-(6-((4-(methylsulfonyl)piperazin-1-yl)methy 1)-4-morpholinopyrrolo[2,1-f][1,2,4]triazin-2-yl)phenyl)urea], for which the results for the IC50 in test [1] and in [2] were 0.54 µM and 0.00959 µM, respectively.

A word on the GI50: it is the concentration giving 50% growth inhibition. Consider `Cc1nc(NC(=O)N2CCC[C@H]2C(N)=O)sc1-c1ccnc(C(C)(C)C(F)(F)F)c1` [BYL719, reference compound], for which the “growth of KYSE 410 xenograft (in words)” value in test [3] (50 mg/kg p.o. every day for 3 weeks) was “significantly slowed down”. Also, the “Relative tumor proliferation rate T/C” value in [3] (d0) came to 100.00%; in [3] (d3), 56.95%; in test [3] (d7), 31.23%; in test [3] (d10), 24.77%; in [3] (d14), 22.12%; in test [3] (d17), 19.32%. Besides, in test [3] (d21), the “Relative tumor proliferation rate T/C” value worked out at 15.37%. Besides, the GI50 in test [4] (KYSE-150, KYSE150, 1st experiment) was determined as 1.64 µM; in test [4] (KYSE-150, KYSE150, 2nd experiment), 2.11 µM; in test [4] (KYSE-150, KYSE150, 3rd experiment), 1.67 µM; in test [4] (KYSE-150, KYSE150, mean of three experiments), 1.81 µM; in test [5] (KYSE2, 1st experiment), 1.44 µM; in [5] (KYSE2, 2nd experiment), 0.911 µM. The concentration for 50% growth inhibition (GI50) was found to be 1.87 µM in test [5] (KYSE2, 3rd experiment); 1.41 µM in test [5] (KYSE2, mean of three experiments); 2.45 µM in test [6] (KYSE-140, KYSE140, 1st experiment); 3.61 µM in [6] (KYSE-140, KYSE140, 2nd experiment); 2.74 µM in test [6] (KYSE-140, KYSE140, 3rd experiment); 2.93 µM in test [6] (KYSE-140, KYSE140, mean of three experiments). The GI50 amounted to 1.89 µM in test [7] (KYSE-410, KYSE410, 1st experiment); 0.816 µM in test [7] (KYSE-410, KYSE410, 2nd experiment); 0.874 µM in test [7] (KYSE-410, KYSE410, 3rd experiment); 1.19 µM in test [7] (KYSE-410, KYSE410, mean of three experiments); 10 µM in test [8] (KYSE-30, KYSE30, 1st experiment); 6.83 µM in test [8] (KYSE-30, KYSE30, 2nd experiment). In addition, the GI50 turned out to be 10 µM in test [8] (KYSE-30, KYSE30, 3rd experiment); 8.94 µM in test [8] (KYSE-30, KYSE30, mean of three experiments); 8.59 µM in test [9] (KYSE-450, KYSE450, 1st experiment); 10 µM in [9] (KYSE-450, KYSE450, 2nd experiment); 8.8 µM in test [9] (KYSE-450, KYSE450, 3rd experiment); 9.13 µM in [9] (KYSE-450, KYSE450, mean of three experiments). For the same compound, the GI50 in test [10] (KYSE-180, KYSE180, 1st experiment) was found to be 0.354 µM; in test [10] (KYSE-180, KYSE180, 2nd experiment), 0.74 µM; in [10] (KYSE-180, KYSE180, 3rd experiment), 0.553 µM; in [10] (KYSE-180, KYSE180, mean of three experiments), 0.549 µM; in [11] (Detroit 562, Detroit 562, 1st experiment) it was 1.97 µM; in test [11] (Detroit 562, Detroit 562, 2nd experiment), 2.3 µM. Further, the GI50 in test [11] (Detroit 562, Detroit 562, 3rd experiment) is 2.39 µM; in test [11] (Detroit 562, Detroit 562, mean of three experiments), 2.22 µM; in [12] (KYSE-70, KYSE70, 1st experiment) it was 0.452 µM; in test [12] (KYSE-70, KYSE70, 2nd experiment) it was 0.45 µM; in test [12] (KYSE-70, KYSE70, 3rd experiment), 0.478 µM; in test [12] (KYSE-70, KYSE70, mean of three experiments), 0.46 µM. The GI50 was 1.53 µM in test [13] (KYSE-510, KYSE510, 1st experiment); 0.835 µM in test [13] (KYSE-510, KYSE510, 2nd experiment); 1.03 µM in test [13] (KYSE-510, KYSE510, 3rd experiment); 1.13 µM in [13] (KYSE-510, KYSE510, mean of three experiments); 6.12 µM in test [14] (1st experiment); 6.05 µM in test [14] (2nd experiment). The GI50 in [14] (3rd experiment) is 6.1 µM; in [14] (mean of three experiments), 6.09 µM.

As to `CCOC(=O)Nc1cc(C(F)(F)F)c(-c2nc(N3CCOCC3)c3cc(CN4CCN(S(C)(=O)=O)CC4)cn3n2)cn1` [Compound I-32, Ethyl (5-(6-((4-(methylsulfonyl)piperazin-1-yl)methyl)-4-morpholinopyrrolo[2,1-f-][1,2,4]triazin-2-yl)-4-(trifluoromethyl)pyridin-2-yl)carbamate], the IC50 in [2] came out at 0.00715 µM.

These data come from US9724352B2, “Pyrrolo[2,1-F[1,2,4]triazine compounds, preparation methods and applications thereof” (Shanghai Institute of Materia Medica, Chinese Academy of …, priority 2012, dated 2017).
